Where no end group is shown, it is not given here.
How the values were obtained:
Assay type in all cases: cell-based
[1] = system: human anagen VI hair follicles; test: Hair shaft elongation of organ-cultured hair follicles, assay #1 (culture HF 429)
Procedure: (§1) Human anagen VI hair follicles were isolated from scalp skin obtained from three different individuals undergoing routine face-lift surgery. All experiments were performed according to Helsinki guidelines.
(§2) Hair follicles were isolated as described (Philpott MP et al, Human hair growth in vitro; J Cell Science 1990, 97(Pt 3):463-71). Isolated HFs were maintained in supplemented, serum-free Williams E medium (Biochrom, Cambridge, UK) supplemented with 2 mMol/L L-glutamine (Invitrogen, Paisley, UK), 10 ng/mL hydrocortisone (Sigma-Aldrich, Taufkirchen, Germany), 10 μg/mL insulin (Sigma-Aldrich), and 1% antibiotic/antimycotic mixture (Gibco, Karlsruhe, Germany). Hair follicles were placed in a 24-well plate with 500 μL medium (day 0) and incubated in a CO2-incubator (5% CO2, 37° C.) over night without any treatment. The next day (day 1) medium was exchanged and test substance was added to each well (5 μL of stock solution was added to 495 μL culture medium). The medium or medium with test substance was changed every 48 hours.
(§3) Assay #1 Culture HF429: Hair follicles were grown in the wells of a microtiter plate (3 follicles per well) and treated for 9 days with culture medium and test substance as indicated in FIG. 1. Thereafter, elongation, melanogenesis and hair cycle stage were determined.
(§4) Hair shaft length measurements were performed every second day on individual hair follicles using a binocular microscope with an eyepiece measuring reticule. The length of the follicle was defined as the distance between the base of the bulb and the cut end of the hair fibre (Philpott MP et al, Human hair growth in vitro; J Cell Science 1990, 97(Pt 3):463-71).
(§5) All data were analysed by two-tailed unpaired t-test (SPSS analysis software SPSS Inc., Chicago, USA). For determination of elongation, two outliers at top and bottom end of value range were eliminated; with the measurement of melanogenesis one outlier at both, top and bottom range, was eliminated. Results are given as mean value and standard error of measurement (SEM).

[2] = system: human anagen VI hair follicles; test: Hair shaft elongation of organ-cultured hair follicles, assay #3 (culture HF 446); conditions: for Rate of hair growth compared with control (in words): p<0.05
Procedure: as §1, §2
(§6) Assay #3 Culture HF 446: Eight hair follicle cultures (3 follicles/well) were treated with various concentration of test substance as described for 2 days, followed by snap freezing and sectioning of two wells. Six wells were treated up to 9 days, then snap frozen and sectioned. The distribution of test substances and concentrations were as indicted in FIG. 3. The parameter measured after two days was proliferation/apoptosis, and the parameters measured after 9 days were elongation, proportion of cells in proliferation/apoptosis, and hair cycle stage
as §4, §5

[3] = system: human anagen VI hair follicles; test: Melanogenesis, Fontana Masson staining measured by Image J, assay #1; conditions: for Mean relative darkening of the groups (measured by image J), Mean: 9 days, dark=small index number, light=high index number
Procedure: as §3
Fontana Masson staining was performed at the end of the culture period and photos taken of snap frozen sections. The photos were analysed (Image J, public domain, developed at the National Institutes of Health, USA) by measuring the density of two squares, consisting of 150×150 dots, placed over the darkest areas on both sides of the dermal papilla. For Fontana-Masson staining, fixed sections were treated in darkness for 40 minutes with a solution containing 10% silver nitrate (Merck & Co., Inc., Whitehouse Station, N.J., USA; CatNo 1.01512.0100), following by a development in solution containing 5% sodium thiosulphate (Merck & Co., Inc.; CatNo 1.06512.2500) for 1 minute and multiple washings in distilled water for 3 minutes. Counterstaining with 0.5% Neutralrot (Chroma Muenster, Germany, CatNo 2E038). Then dehydration in xylol and covering with Eukitt (O. Kindler GmbH, Freiburg, Germany; CatNo E115).
as §5
Micro-dissected anagen VI hair follicles were treated as above described. At the end of the culture period Fontana Masson staining was performed and photos were taken of the snap frozen sections. The pictures were analysed by measuring the darkness (brightness) of two squares, consisting of 150×150 dots, placed over the darkest areas on both sides of the dermal papilla (dark=small index number, light=high index number). The shading of the different groups was compared to each other and the results were analysed using Student's t-test. The results are shown below in Table 5 and FIG. 7.

[4] = system: human anagen hair follicles; test: Ki67/TUNEL staining, percentage of proliferating cells, assay #3; conditions: for Mean percentage of Ki67-positive cells: after 9 days of culture, Anagen only; for Percentage of proliferating cells compared to the control (in words): nine days, p<0.05
Procedure: as §6
After nine days, Ki67/TUNEL staining was performed and photos taken.
Proliferating and resting cells as well as cells undergoing apoptosis were counted separately proximal Auber's line. Results are expressed as percentages. For Ki-67/TUNEL staining, fixed sections were incubated for 60 minutes in a solution comprising 30% TdT-enzyme (Chemicon International, Inc., Temecula, Calif., USA; CatNo S1707). 2 mL stop buffer (Chemicon International, Inc.; CatNo S7110), diluted in 68 mL distilled water, was added for 10 minutes to stop the reaction. This was followed by a pre-incubation for 20 minutes with 10% goat serum (Dako Cytomation, CatNo 50114121) and incubation with mouse-anti human Ki-67 antigen (Chemicon International, Inc., CatNo S7110) 1:20 in PBS with 2% goat serum. The fixed section was then washed in PBS, treated with anti-digoxigenin antibody (Chemicon International, Inc., CatNo S7110) (59DI Antibody solution and 5601 Stop solution, 30 minutes) and goat anti-mouse-IgG-rhodamine red (Jackson Immuno Research, Suffolk, UK; CatNo 115-295-062), 1:200 in PBS with 2% goat serum. After washes with PBS, counterstaining with DAPI™ ([…]) (Roche, Basel, Switzerland; CatNo 236276) and further washes with PBS and mounting using Fluoromount (Southern Biotech, Birmingham, Ala., USA; CatNo 0100-01).
After nine days, Ki67/TUNEL staining was performed and photos were taken. In anagen hair follicles, proliferating cells and cells undergoing apoptosis were counted separately proximal Auber's line. Results are expressed as percentages. […] The results are summarized in Table 6 and FIG. 9 showing the mean percentage of Ki6 7 positive cells with SEM

human hair follicles = test: Hair cycle staging of cultured hair follicles (assays #1, #2, #3); conditions: after 9 days of treatment, both tested individuals, all concentrations
Procedure: (§7) Photodocuments from the Fontana Masson staining were used for hair follicle staging according to previously well-defined morphological criteria (Stenn K S et al, Controls of Hair Follicle Cycling; Physiol Rev 2001, 81:449-494, Müller-Röver S et al, A Comprehensive Guide for the Accurate Classification of Murine Hair Follicles in Distinct Hair Cycle Stages; J Invest Dermatol 2001, 117:3-15). The percentage of hair follicles in anagen, early, mid and late catagen was determined.
as §7, with “determined in the different assays.” for “determined.”

thymulin = test: Thymulin staining of GH-treated hair follicles

Thymosin alpha-1 (SDAAVDTSSEITTKDLKEKKEVVEEAEN; ends and bridges not checked; UniProt P06454 2-29, looked up) [TA1, 28aa thymic peptide which modulates lymphocyte differentiation]
Mean elongation in percent compared to day 0 ([1]; 100 ng/mL, Day 0): 0.00% | Mean elongation in percent compared to day 0 ([1]; 100 ng/mL, Day 1): 16.71% | Mean elongation in percent compared to day 0 ([1]; 100 ng/mL, Day 3): 34.54% | Mean elongation in percent compared to day 0 ([1]; 100 ng/mL, Day 5): 51.14% | Mean elongation in percent compared to day 0 ([1]; 100 ng/mL, Day 7): 70.11% | Mean elongation in percent compared to day 0 ([1]; 100 ng/mL, Day 9): 82.55% | Mean elongation in percent compared to day 0 ([1]; 1000 ng/mL, Day 0): 0.00% | Mean elongation in percent compared to day 0 ([1]; 1000 ng/mL, Day 1): 15.41% | Mean elongation in percent compared to day 0 ([1]; 1000 ng/mL, Day 3): 34.74% | Mean elongation in percent compared to day 0 ([1]; 1000 ng/mL, Day 5): 50.66% | Mean elongation in percent compared to day 0 ([1]; 1000 ng/mL, Day 7): 66.20% | Mean elongation in percent compared to day 0 ([1]; 1000 ng/mL, Day 9): 75.26% | Mean elongation in % compared to day 0 ([2]; 100 ng/mL, Day 0): 0% | Mean elongation in % compared to day 0 ([2]; 100 ng/mL, Day 1): 6.25% | Mean elongation in % compared to day 0 ([2]; 100 ng/mL, Day 3): 45.55% | Mean elongation in % compared to day 0 ([2]; 100 ng/mL, Day 5): 49.52% | Mean elongation in % compared to day 0 ([2]; 100 ng/mL, Day 7): 61.94% | Mean elongation in % compared to day 0 ([2]; 100 ng/mL, Day 9): 69.90% | Rate of hair growth compared with control (in words) ([2]; 100 ng/mL): significantly lowered rate of hair growth | Mean elongation in % compared to day 0 ([2]; 1000 ng/mL, Day 0): 0% | Mean elongation in % compared to day 0 ([2]; 1000 ng/mL, Day 1): 4.00% | Mean elongation in % compared to day 0 ([2]; 1000 ng/mL, Day 3): 37.95% | Mean elongation in % compared to day 0 ([2]; 1000 ng/mL, Day 5): 51.77% | Mean elongation in % compared to day 0 ([2]; 1000 ng/mL, Day 7): 68.36% | Mean elongation in % compared to day 0 ([2]; 1000 ng/mL, Day 9): 73.33% | Rate of hair growth compared with control (in words) ([2]; 1000 ng/mL): significantly lowered rate of hair growth | Mean relative darkening of the groups (measured by image J), Mean ([3]; 100 ng/mL): 81.01 | Mean relative darkening of the groups (measured by image J), Mean ([3]; 1000 ng/mL): 71.61 | Influence on HF melanogenesis (in words) ([3]; quantitative Masson-Fontana histochemistry): did not influence HF melanogenesis | Mean percentage of Ki67-positive cells ([4]; 100 ng/mL): 25.15 percentage | Percentage of proliferating cells compared to the control (in words) ([4]; 100 ng/mL): less percentage of cells are proliferating | Mean percentage of Ki67-positive cells ([4]; 1000 ng/mL): 28.05 percentage | Percentage of proliferating cells compared to the control (in words) ([4]; 1000 ng/mL): less percentage of cells are proliferating | Hair follicles in anagen compared with control (in words) (human hair follicles): more hair follicles in anagen

GH: GH, pituitary hormone that stimulates the secretion of thymulin
Staining for thymulin compared with the control group (in words) (thymulin): stained more intensively for thymulin

From patent publication US20110281802A1, “COMPOSITION FOR TREATMENT AND PREVENTION OF HAIR LOSS AND PREMATURE GRAYING OF HAIR” (Immudiagnostik AG, priority 2007, published 2011)
